This is an account of results in ChEMBL document CHEMBL3259697, “Identification of type II and III DDR2 inhibitors” (J Med Chem, 2014).

In assay [1] the target is Discoidin domain-containing receptor 2 (Homo sapiens, UniProt Q16832, T654M). Nature of the assay: Inhibition of DDR2 T654M mutant (unknown origin) preincubated for 30 mins before substrate addition by FRET assay.
The target of assay [2] is T1, Discoidin domain-containing receptor 2 (Homo sapiens, UniProt Q16832).
T1 sequence (Q16832 whole entry): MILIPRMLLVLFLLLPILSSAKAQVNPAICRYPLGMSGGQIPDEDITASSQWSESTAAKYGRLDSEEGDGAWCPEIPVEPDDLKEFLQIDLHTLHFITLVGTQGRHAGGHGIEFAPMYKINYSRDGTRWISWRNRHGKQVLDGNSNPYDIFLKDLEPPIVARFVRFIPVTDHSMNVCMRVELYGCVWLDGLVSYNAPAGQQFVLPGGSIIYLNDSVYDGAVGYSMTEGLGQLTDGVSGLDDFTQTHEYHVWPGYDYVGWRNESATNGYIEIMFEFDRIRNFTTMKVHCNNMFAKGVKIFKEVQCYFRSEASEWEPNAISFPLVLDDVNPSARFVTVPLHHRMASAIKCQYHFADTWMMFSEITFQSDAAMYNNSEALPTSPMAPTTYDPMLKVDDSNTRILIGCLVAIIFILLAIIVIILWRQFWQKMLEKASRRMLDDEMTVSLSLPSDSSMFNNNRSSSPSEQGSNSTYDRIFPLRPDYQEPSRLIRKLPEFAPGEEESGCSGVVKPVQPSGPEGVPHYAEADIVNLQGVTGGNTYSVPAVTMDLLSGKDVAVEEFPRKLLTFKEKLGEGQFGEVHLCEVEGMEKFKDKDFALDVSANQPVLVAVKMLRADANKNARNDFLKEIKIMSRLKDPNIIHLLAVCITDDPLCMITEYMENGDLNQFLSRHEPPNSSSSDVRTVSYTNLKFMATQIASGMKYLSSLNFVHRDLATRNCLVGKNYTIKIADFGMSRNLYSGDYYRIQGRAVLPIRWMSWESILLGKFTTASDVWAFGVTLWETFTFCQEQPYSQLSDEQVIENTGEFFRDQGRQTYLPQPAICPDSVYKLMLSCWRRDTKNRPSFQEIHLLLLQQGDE
Description: Inhibition of wild type DDR2 (unknown origin) preincubated for 30 mins before substrate addition by FRET assay

The target of assay [3] is T1, Discoidin domain-containing receptor 2. This is another data set of the same source.
Description: Binding affinity to human acrylodan-labeled N-terminal His-tagged DDR2 (558 to 855 aa) by FLiK assay
In assay [4] the target is T2, Discoidin domain-containing receptor 2 (Homo sapiens) (UniProt Q16832).
T2 sequence (whole entry): T1 sequence (Q16832 whole entry)
Nature of the assay: Reversible binding affinity to human acrylodan-labeled N-terminal His-tagged DDR2 (558 to 855 aa) at 100 nM by fluorescence spectroscopy.

The target in assay [5] is T1, Discoidin domain-containing receptor 2. In words: Binding affinity to human acrylodan-labeled N-terminal His-tagged DDR2 (558 to 855 aa) by fluorescence spectroscopy.
Assay [6] shares this target. Nature of the assay: Binding affinity to human DDR2 by Ambit assay.
Assay [7] shares this target. Nature of the assay: Inhibition of DDR2 (unknown origin) after 120 mins by radiometric assay in presence of gamma-[33P]-ATP.
Assay [8] has as its target Epithelial discoidin domain-containing receptor 1 (Homo sapiens, UniProt Q08345). In words: Inhibition of DDR1 (unknown origin) after 120 mins by radiometric assay in presence of gamma-[33P]-ATP.

Structures are written as SMILES. The source made the active and inactive calls. The rule behind the calls is not given here. Bounds are passed on as bounds.

Chain of Discoidin domain-containing receptor 2 (Homo sapiens, UniProt Q16832, T654M) (Q16832 22-855 T654M limits assumed): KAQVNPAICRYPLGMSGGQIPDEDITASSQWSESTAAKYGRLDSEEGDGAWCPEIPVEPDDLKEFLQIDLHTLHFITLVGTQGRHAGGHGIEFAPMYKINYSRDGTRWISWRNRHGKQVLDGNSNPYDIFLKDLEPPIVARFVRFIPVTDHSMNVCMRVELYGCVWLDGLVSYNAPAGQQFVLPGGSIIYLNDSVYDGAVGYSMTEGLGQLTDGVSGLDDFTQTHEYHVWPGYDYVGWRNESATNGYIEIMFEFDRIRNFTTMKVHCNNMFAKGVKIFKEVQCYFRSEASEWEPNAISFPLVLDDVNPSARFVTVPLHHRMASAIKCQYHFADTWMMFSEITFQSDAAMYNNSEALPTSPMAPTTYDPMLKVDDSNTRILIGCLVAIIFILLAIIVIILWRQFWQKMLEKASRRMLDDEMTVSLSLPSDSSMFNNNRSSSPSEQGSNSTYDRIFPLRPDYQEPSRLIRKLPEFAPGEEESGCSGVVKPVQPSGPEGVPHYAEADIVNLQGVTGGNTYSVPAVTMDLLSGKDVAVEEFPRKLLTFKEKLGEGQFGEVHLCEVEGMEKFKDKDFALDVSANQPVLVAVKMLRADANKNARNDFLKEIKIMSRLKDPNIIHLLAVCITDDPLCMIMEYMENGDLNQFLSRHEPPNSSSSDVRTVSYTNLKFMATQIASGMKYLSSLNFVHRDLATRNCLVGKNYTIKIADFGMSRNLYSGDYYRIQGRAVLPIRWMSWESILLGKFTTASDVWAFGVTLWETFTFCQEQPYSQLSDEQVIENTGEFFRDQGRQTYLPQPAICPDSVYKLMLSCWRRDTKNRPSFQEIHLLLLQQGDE
Chain of Epithelial discoidin domain-containing receptor 1 (Q08345 whole entry, the tested form may be a part): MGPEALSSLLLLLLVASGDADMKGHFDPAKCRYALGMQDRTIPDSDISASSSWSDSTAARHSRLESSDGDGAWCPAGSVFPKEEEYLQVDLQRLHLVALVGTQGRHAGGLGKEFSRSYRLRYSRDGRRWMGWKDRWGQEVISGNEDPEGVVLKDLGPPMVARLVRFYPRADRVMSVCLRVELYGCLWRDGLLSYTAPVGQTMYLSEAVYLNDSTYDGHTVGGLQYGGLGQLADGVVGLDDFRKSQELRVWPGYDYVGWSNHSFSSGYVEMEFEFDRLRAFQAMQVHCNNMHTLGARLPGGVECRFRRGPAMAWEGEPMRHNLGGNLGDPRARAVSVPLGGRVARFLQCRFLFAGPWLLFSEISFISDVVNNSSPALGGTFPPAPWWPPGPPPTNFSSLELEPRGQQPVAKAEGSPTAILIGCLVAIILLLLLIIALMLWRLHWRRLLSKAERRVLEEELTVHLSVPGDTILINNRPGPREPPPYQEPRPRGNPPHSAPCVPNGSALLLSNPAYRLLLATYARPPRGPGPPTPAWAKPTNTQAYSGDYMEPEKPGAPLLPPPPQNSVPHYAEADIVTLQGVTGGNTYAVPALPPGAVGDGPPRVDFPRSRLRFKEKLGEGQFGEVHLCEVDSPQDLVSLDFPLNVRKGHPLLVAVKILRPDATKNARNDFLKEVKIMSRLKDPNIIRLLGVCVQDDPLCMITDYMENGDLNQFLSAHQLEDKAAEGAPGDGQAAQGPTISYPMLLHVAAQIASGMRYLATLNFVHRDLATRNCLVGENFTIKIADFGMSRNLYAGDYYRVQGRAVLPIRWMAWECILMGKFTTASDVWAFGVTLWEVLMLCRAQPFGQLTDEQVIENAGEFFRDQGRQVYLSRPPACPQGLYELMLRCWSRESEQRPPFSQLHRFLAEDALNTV

The IC50 is the concentration that gives 50% inhibition. As a reminder, the Kd is the equilibrium constant for the complex coming apart. The low end stands for higher affinity, the high end for lower affinity. `CCC(=O)Nc1cccc(-n2nc(C(C)(C)C)cc2NC(=O)Nc2ccc(OCCN3CCOCC3)c3ccccc23)c1`: the IC50 was 687 nM in assay [1] and 29 nM in assay [2]. This compound displayed a Kd in assay [3] of 30 nM.
For `CC(C)(C)c1cc(NC(=O)Nc2ccc(Cl)cc2)n(-c2cccc(N)c2)n1`, the IC50 was 717 nM in assay [1] and 558 nM in assay [2]. The outcome in assay [4] was Active. Also, the figures for the Kd in assay [5], in assay [3] and in assay [6] were 3.8 nM, 15 nM and 15 nM, respectively.
Compound `CSc1ccc(-c2nc3cnccn3c2NC2CCCCC2)cc1` displayed a dissociation constant Kd in assay [3] of over 1000 nM.
Consider `CC(C)(C)c1cc(NC(=O)Nc2cccc3ccccc23)n(-c2cccc([N+](=O)[O-])c2)n1`, for which the IC50 in assay [1] is at least 100000 nM; in assay [2], 332 nM. The compound further displayed a Kd in assay [3] of 428 nM.
In the case of `CC(C)(C)c1cc(NC(=O)Nc2nccs2)n(-c2ccc(CC(=O)O)cc2)n1`, the results for the IC50 in assay [1] and in assay [2] were 820 nM and 9170 nM, respectively. The compound further had a Kd in assay [3] of over 1000 nM.
In the case of `NC(=O)c1c(OCc2c(F)cc(Br)cc2F)nsc1NC(=O)NCCCCN1CCCC1` [OSI-632], the IC50 in assay [1] worked out at 450 nM; in assay [2] it was 24 nM. Besides, the Kd in assay [3] is 422 nM.
As for `Cc1ccc(-n2nc(C(C)(C)C)cc2NC(=O)Nc2cccc3ccccc23)cc1`, the values for the IC50 in assay [1] and in assay [2] were at least 100000 nM and 408 nM, respectively. Besides, the Kd in assay [3] is 252 nM.
Regarding `CC(C)(C)c1cc(NC(=O)Nc2nc(CCOCc3ccccc3)cs2)n(-c2ccc(CC(=O)O)cc2)n1`, the IC50 came out at 670 nM in assay [1] and 2230 nM in assay [2]. The Kd in assay [3] came out at 382 nM.
Take `O=C(Nc1ccc(OCCN2CCOCC2)c2ccccc12)c1cc(F)cc(N2CCOCC2)c1`: the midpoint of inhibition in assay [2], the IC50, lay at 10900 nM. Further, in assay [3], the Kd stood at 915 nM.
`O=C(O)Cc1ccc(-n2nc(C3CCCC3)cc2NC(=O)Nc2nc(CCOCc3ccccc3)cs2)cc1`: the IC50 was found to be 1840 nM in assay [1] and 2170 nM in assay [2]. This compound also had a dissociation constant (Kd) in assay [3] of over 1000 nM.
The like results for `CC(C)(C)c1cc(NC(=O)Nc2ccc(Cl)cc2)n(-c2cccc([N+](=O)[O-])c2)n1` were, in that order, 1230 nM, 856 nM and 412 nM.
In the same order, the values of `O=C(O)Cc1cccc(-n2nc(C3CCCC3)cc2NC(=O)Nc2nc(CCOCc3ccccc3)cs2)c1` are 380 nM, 1560 nM and 385 nM.
Turning to `Cc1ccc(-n2nc(C(C)(C)C)cc2NC(=O)Nc2nc(CCOCc3ccc(F)cc3)cs2)cc1`, the results for the IC50 in assay [1] and in assay [2] were 230 nM and 3040 nM, respectively. Moreover, the Kd in assay [3] is 406 nM.
In the case of `CC(C)(C)c1cc(NC(=O)Nc2cccc(Nc3ncnc4ccccc34)c2)n(-c2cccc(N)c2)n1`, the half-inhibitory concentration (IC50) in assay [7] is 75 nM; in assay [1] it was 73 nM; in assay [2], 2 nM. This compound gave a dissociation constant (Kd) in assay [3] of over 1000 nM.
Take `Nc1c(-c2ccccc2)oc2ccccc2c1=O`: the IC50 is at least 100000 nM in assay [1] and 80800 nM in assay [2]. The Kd in assay [3] is over 1000 nM.
As for `CC(C)(C)c1cc(NC(=O)Nc2ccc(Nc3ncnc4ccccc34)cc2)n(-c2cccc(N)c2)n1`, the IC50 in assay [7] turned out to be 18 nM; in assay [1], 1 nM; in assay [2], 3 nM. Moreover, in assay [3], the affinity, expressed as Kd, was 93 nM.
In the case of `COc1ccccc1NC(=O)c1sc2nc(C)c(C(=O)Nc3ccc(C)cc3C)c(-c3ccc(NC(C)=O)cc3)c2c1N`, the Kd in assay [3] was over 1000 nM.
Consider `CC(C)(C)c1cc(NC(=O)Nc2nc(CCOCc3ccccc3)cs2)n(-c2cccc(CC(=O)O)c2)n1`, for which the IC50 in assay [1] worked out at 1670 nM; in assay [2] it was 10700 nM. Further, the Kd in assay [3] was over 1000 nM.
For `CC(C)(C)c1cc(NC(=O)Nc2nc(CCOCc3ccc(F)cc3)cs2)n(-c2ccc(CC(=O)O)cc2)n1`, the IC50 amounted to 76 nM in assay [1] and 1230 nM in assay [2]. Further, in assay [3], binding was characterised by a dissociation constant (Kd) of 424 nM.
`CC(C)(C)c1cc(NC(=O)Nc2ccc(OCCN3CCOCC3)c3ccccc23)n(-c2cccc(N)c2)n1`: the IC50 in assay [1] was 72 nM; in assay [2], 8 nM. In assay [3], this compound came in with a Kd of 20 nM.
The like results for `Cc1cccc(-n2nc(C(C)(C)C)cc2NC(=O)Nc2ccc(Cl)cc2)c1` were, in that order, 808 nM, 183 nM and 15 nM.
With `Cc1ccc(-n2nc(C(C)(C)C)cc2NC(=O)Nc2nc(CCOCc3ccncc3)cs2)cc1`, the IC50 came to 65 nM in assay [7], 2 nM in assay [1], 19 nM in assay [2] and 68 nM in assay [8]. Moreover, the Kd in assay [3] stood at 63 nM.
For `CCOCCNc1cccc(-n2nc(C(C)(C)C)cc2NC(=O)Nc2ccc(OCCN3CCOCC3)c3ccccc23)c1`, the half-inhibitory concentration (IC50) in assay [2] was 14400 nM. The compound further returned a Kd in assay [3] of over 1000 nM.
Take `Cc1ccc(-n2nc(C(C)(C)C)cc2NC(=O)Nc2nccs2)cc1`: the values for the concentration for half-maximal inhibition (IC50) in assay [1] and in assay [2] were 1150 nM and 4700 nM, respectively. This compound came in with a Kd in assay [3] of 702 nM.
On to `CC(C)(C)c1cc(NC(=O)Nc2ccccc2)n(-c2cccc(N)c2)n1`, for which the IC50 in assay [1] came to 2500 nM; in assay [2], 9410 nM. In addition, in assay [3], the Kd was over 1000 nM.
